Here are results for four substances from US20110263454A1, “Methods of Identifying Functional Characteristics of Promoters, Transcription Modifying Proteins and Transcription Modulating Agents” (Salk Institute for Biological Studies, priority 2008, published 2011).

The test system of one test is MCP-1 promoter. Nature of the test: NHR-promoter luciferase screen, MCP-1 promoter. The format is cell-based. Particulars: for Normalized Luc. act., normalized to control / Luc. act., normalized to lacZ: MCP-1 promoter reporter; for Normalized Luc. act., normalized to control: HR without or with its ligand, relative to control; for Luc. act., normalized to lacZ: hormone receptor (HR) without or with its ligand; for mMCP-1 promoter reporter activity: transcription factor +/- ligand, control = 1.00. The protocol:
(§1) The use, feasibility, and reproducibility of the functional NHR-promoter screen in a 48-well format have been tested validated. Briefly, there were co-expressed 50 ng of each NHR/NHR homodimer or NHR/RXR heterodimer with 100 ng promoter/luciferase construct and 50 ng of LacZ (as a control for transfection efficiency) in CV-1 cells using Fugene HD (Roche) as a transfection reagent (alternatively or additionally, a CMV-YFP construct can be used as a transfection control). Each of the nuclear hormone receptors that were used in these experiments was cloned into a pcDNA3.1 vector and comprised a C-terminally linked V5H6 tag. Twenty-four hours after transfection, appropriate ligands were added, where applicable, (see Table 5 for various ligands and concentrations and after 48 hrs, samples were assayed for luciferase and LacZ activity. To measure for luciferase activity 15 ul of sample was added to 30 ul of luciferase buffer (20 mM tricine, 1.07 mM MgCarbonate, 2.67 mM MgSulfate, 0.1 mM Naz-EDTA, 5 mM DTT, 5 mM ATP, 0.15 mg/ml CoA, 0.5 mM Luciferin), mixed briefly, and run in a Perkin Elmer Victor 5 luminometer. Thus, the functional NHR-promoter screen was used to observe the transcriptional activity of 29 promoters from various physiological pathways including inflammation, lipid and sugar metabolism, cholesterol transport, xenobiotic metabolism, and circadian rhythm.
(§2) The promoters that facilitate transcription of the indicated gene products that were tested using the protocols described herein are listed in the first row of the table. The nuclear hormone receptors and, where applicable, ligands that were assayed for their transcriptional effects on the promoters are listed in the first column of the table. The data represent the luciferase activity of each sample normalized to both the lacZ activity of that sample and to a control, e.g., no NHR or ligand, as customary in the art. As described previously, these normalizations allow the transcriptional activity of each reporter cell to be compared to other samples.
(§3) Tables 7-40 show the transcriptional effects of the hormone receptors, and, where applicable, ligands (orphan receptors are screened without ligand), on each individual promoter. […] The control data of each table are shown in their last rows.

The next test relates to mUCP1 promoter. Nature of the test: NHR-promoter luciferase screen, mUCP1 promoter. The format is cell-based, mouse. The settings on record: for Luc. act., normalized to lacZ / Normalized Luc. act., normalized to control: mUCP1 promoter reporter, co-transfected HR, with or without its ligand; for Normalized Luc. act., normalized to control: relative to control; for luciferase activity normalized to lacZ activity and to a control, mUCP!: mUCP! promoter-luciferase, CV-1 cells, NHR +/- ligand, control = 1.00. The protocol:
as §1, §2, §3

A further test relates to mGhrelin promoter. Nature of the test: NHR-promoter luciferase screen, mGhrelin promoter. The format is cell-based, mouse. The settings on record: for Luc. act., normalized to lacZ / Normalized Luc. act., normalized to control: Table 8, mGhrelin; for Results of assays of transcription factor (+/- ligand) with mGhrelin: Table 6d, luciferase activity relative to control (control = 1.00). The protocol:
as §1, §2, §3

Another test deals with hG6PD promoter. Nature of the test: NHR-promoter luciferase screen, hG6PD promoter. The format is cell-based, human. Particulars: for Luc. act., normalized to lacZ / Normalized Luc. act., normalized to control: G6PD promoter reporter, co-transfected HR, without or with its ligand; for Normalized Luc. act., normalized to control: relative to control; for luciferase activity normalized to lacZ activity and to a control, hG6PD: hG6PD promoter-luciferase, CV-1 cells, NHR +/- ligand, control = 1.00. The protocol: as §1, §2, §3

A further test has as its system hPPARg2 promoter. Nature of the test: NHR-promoter luciferase screen, hPPARg2 promoter. In kind it is cell-based, human. The settings on record: for Luc. act., normalized to lacZ / Normalized Luc. act., normalized to control: PPARG2 promoter, hormone receptor with or without its ligand; for Normalized Luc. act., normalized to control: relative to control; for Results of assays of transcription factor (+/- ligand) with hPPARg2: Table 6d, luciferase activity relative to control (control = 1.00). The protocol: as §1, §2, §3

A further test deals with hIFNg promoter. Nature of the test: NHR-promoter luciferase screen, hIFNg promoter. The format is cell-based, human. The settings on record: for Luc. act., normalized to lacZ / Normalized Luc. act., normalized to control: IFNg promoter, HR component without or with ligand; for hIFNg promoter reporter activity: transcription factor +/- ligand, control = 1.00. The protocol: as §1, §2, §3

For “GR: Glucocorticoid Receptor (NR3C1), cDNA driver”, in the test on MCP-1 promoter, the “Normalized Luc. act., normalized to control” value stood at 0.2; the “Luc. act., normalized to lacZ” value is 23.9; the “mMCP-1 promoter reporter activity” value was found to be 0.22. Besides, in the test with mUCP1 promoter, the “Luc. act., normalized to lacZ” value was found to be 1.9; the “Normalized Luc. act., normalized to control” value came out at 0.4; the “luciferase activity normalized to lacZ activity and to a control, mUCP!” value (shortened to “luciferase activity normalized … mUCP!”) is 0.42. In the test with mGhrelin promoter, the “Luc. act., normalized to lacZ” value amounted to 14.3; the “Normalized Luc. act., normalized to control” value came out at 0.3; the “Results of assays of transcription factor (+/- ligand) with mGhrelin” value (“Results of assays … with mGhrelin” below) stood at 0.27. Besides, in the test with mGhrelin promoter (mGhrelin promoter-luciferase, NHR +/- ligand, control = 1.0), the “luciferase/LacZ, mGhrelin (selected results)” value turned out to be 0.3. In addition, in the test with hG6PD promoter, the “Luc. act., normalized to lacZ” value is reported as 22.3; the “Normalized Luc. act., normalized to control” value turned out to be 0.6; the “luciferase activity normalized to lacZ activity and to a control, hG6PD” value (shortened to “luciferase activity normalized … hG6PD”) turned out to be 0.60. Also, in the test on hPPARg2 promoter, the “Luc. act., normalized to lacZ” value was determined as 2.3; the “Normalized Luc. act., normalized to control” value is 1.1; the “Results of assays of transcription factor (+/- ligand) with hPPARg2” value (“Results of assays … with hPPARg2” below) is reported as 1.15. In addition, in the test with hIFNg promoter, the “Luc. act., normalized to lacZ” value came to 8.9; the “Normalized Luc. act., normalized to control” value was found to be 0.6; the “hIFNg promoter reporter activity” value came out at 0.56.
For “PNR: Photoreceptor-specific Nuclear Receptor (NR2E3), cDNA driver”, in the test with MCP-1 promoter, the “Normalized Luc. act., normalized to control” value is recorded as 1.1; the “Luc. act., normalized to lacZ” value amounted to 116.3; the “mMCP-1 promoter reporter activity” value worked out at 1.09. In addition, in the test with mUCP1 promoter, the “Luc. act., normalized to lacZ” value is reported as 1.7; the “Normalized Luc. act., normalized to control” value is 0.4; the “luciferase activity normalized … mUCP!” value came out at 0.37. Further, in the test with mGhrelin promoter, the “Luc. act., normalized to lacZ” value is 32.4; the “Normalized Luc. act., normalized to control” value was 0.6; the “Results of assays … with mGhrelin” value was 0.62. In addition, in the test on hG6PD promoter, the “Luc. act., normalized to lacZ” value stood at 45.9; the “Normalized Luc. act., normalized to control” value was determined as 1.2; the “luciferase activity normalized … hG6PD” value was 1.23. Also, in the test with hPPARg2 promoter, the “Luc. act., normalized to lacZ” value was 1.0; the “Normalized Luc. act., normalized to control” value came out at 0.5; the “Results of assays … with hPPARg2” value was 0.51. Further, in the test with hIFNg promoter, the “Luc. act., normalized to lacZ” value is on record as 11.3; the “Normalized Luc. act., normalized to control” value is 0.7; the “hIFNg promoter reporter activity” value came to 0.71.
On to “VDR: Vitamin D Receptor (NR1I1), cDNA driver”, for which, in the test on MCP-1 promoter, the “Normalized Luc. act., normalized to control” value is on record as 2.0; the “Luc. act., normalized to lacZ” value was found to be 215.8; the “mMCP-1 promoter reporter activity” value came out at 2.02. In addition, in the test on mUCP1 promoter, the “Luc. act., normalized to lacZ” value came out at 2.8; the “Normalized Luc. act., normalized to control” value is reported as 0.6; the “luciferase activity normalized … mUCP!” value was 0.63. In the test on mGhrelin promoter, the “Luc. act., normalized to lacZ” value was 76.6; the “Normalized Luc. act., normalized to control” value was 1.5; the “Results of assays … with mGhrelin” value amounted to 1.47. In the test on hG6PD promoter, the “Luc. act., normalized to lacZ” value is listed as 43.1; the “Normalized Luc. act., normalized to control” value came out at 1.2; the “luciferase activity normalized … hG6PD” value was determined as 1.15. Further, in the test on hPPARg2 promoter, the “Luc. act., normalized to lacZ” value was determined as 2.1; the “Normalized Luc. act., normalized to control” value is reported as 1.0; the “Results of assays … with hPPARg2” value is listed as 1.03. Also, in the test with hIFNg promoter, the “Luc. act., normalized to lacZ” value turned out to be 16.06; the “Normalized Luc. act., normalized to control” value is 1.0; the “hIFNg promoter reporter activity” value is 1.01.
For “ERR1: Estrogen Related Receptor α (NR3B1, ERRa), cDNA driver”, in the test on MCP-1 promoter, the “Normalized Luc. act., normalized to control” value came out at 2.2; the “Luc. act., normalized to lacZ” value was found to be 237.3; the “mMCP-1 promoter reporter activity” value was determined as 2.22. In addition, in the test on mUCP1 promoter, the “Luc. act., normalized to lacZ” value stood at 3.9; the “Normalized Luc. act., normalized to control” value was 0.9; the “luciferase activity normalized … mUCP!” value came to 0.88. Also, in the test on mGhrelin promoter, the “Luc. act., normalized to lacZ” value amounted to 81.4; the “Normalized Luc. act., normalized to control” value came out at 1.6; the “Results of assays … with mGhrelin” value was determined as 1.56. For the same substance, in the test with hG6PD promoter, the “Luc. act., normalized to lacZ” value was 59.1; the “Normalized Luc. act., normalized to control” value was 1.6; the “luciferase activity normalized … hG6PD” value is 1.58. Moreover, in the test on hPPARg2 promoter, the “Luc. act., normalized to lacZ” value is given as 1.7; the “Normalized Luc. act., normalized to control” value amounted to 0.8; the “Results of assays … with hPPARg2” value came to 0.84. In the test on hIFNg promoter, the “Luc. act., normalized to lacZ” value was found to be 18.5; the “Normalized Luc. act., normalized to control” value is on record as 1.2; the “hIFNg promoter reporter activity” value amounted to 1.17.
